In article PMC6155021, “Ancient and modern anticonvulsants act synergistically in a KCNQ potassium channel binding pocket” (Nature Communications, 2018):

Key:
KCNQ2 = KCNQ2 (Homo sapiens, UniProt O43526); test: Two-electrode voltage-clamp of homomeric KCNQ2 in Xenopus oocytes; format: cell-based
Text: (§1) cRNA transcripts encoding human KCNA1, KCNQ1, KCNQ2, KCNQ3, KCNQ4, or KCNQ5 were generated by in vitro transcription using the T7 polymerase message machine kit (Thermo Fisher Scientific), after vector linearization, from cDNA sub-cloned into plasmids incorporating X. laevis β-globin 5′ and 3′ UTRs flanking the coding region to enhance translation and cRNA stability. cRNA was quantified by spectrophotometry. Mutant cDNAs were generated by site-directed mutagenesis using a QuikChange kit according to manufacturer’s protocol (Stratagene, San Diego, CA) and corresponding cRNAs prepared as above. Defolliculated stage V and VI X. laevis oocytes (Ecocyte Bioscience, Austin, TX) were injected with Kv channel α subunit cRNAs (10 ng total per oocyte). Oocytes were incubated at 16 °C in Barth’s saline solution (Ecocyte) containing penicillin and streptomycin, with daily washing, for 3–5 days prior to two-electrode voltage-clamp (TEVC) recording.
(§2) Oocytes were placed in a small-volume oocyte bath (Warner) and viewed with a dissection microscope. Chemicals were sourced from Sigma. Bath solution was (in mM): 96 NaCl, 4 KCl, 1 MgCl2, 1 CaCl2, 10 HEPES (pH 7.6). […] MTX (DMSO), sorbic acid (ethanol), and glutaconic acid (molecular grade H2O) were stored at −20 °C as 1 M stocks. Oleamide was stored as a 1 mM stock in ethanol at 4 °C. Palmitic acid was conjugated with bovine serum albumin as a 1 mM stock and stored at −20 °C. All compounds were diluted to working concentrations each experimental day. All compounds were introduced to the recording bath via gravity perfusion at a constant flow of 1 ml/min for 3 min prior to recording. Pipettes were of 1–2 MΩ resistance when filled with 3 M KCl. Currents were recorded in response to pulses between −80 and +40 mV at 20 mV intervals, or a single pulse to +40 mV, from a holding potential of −80 mV, to yield current–voltage relationships, current magnitude, and for quantifying activation rate. TEVC data analysis was performed with Clampfit10.2 (Molecular Devices) and Graphpad Prism software (GraphPad, San Diego, CA, USA); values are stated as mean ± SEM. Normalized tail currents were plotted versus prepulse voltage and fitted with a single Boltzmann function:1 g=A1-A2/1+expV12-Vy+A2, where g is the normalized tail conductance, A1 is the initial value at −∞, A2 is the final value at +∞, V1/2 is the half-maximal voltage of activation, and Vs the slope factor. Activation and deactivation kinetics were fitted with single-exponential functions.

W236L-Q2/Q3 channels = W236L-Q2/Q3 channels (Homo sapiens, UniProt O43525+O43526, W236L); test: Two-electrode voltage-clamp of W236L-Q2/Q3 mutant channels in Xenopus oocytes; format: cell-based; conditions: for Non-normalized tail current V0.5 / Normalized tail current V0.5 / Slope: W236L-Q2/Q3
Text: as §1, §2

Q2/W265L-Q3 channels = Q2/W265L-Q3 channels (Homo sapiens, UniProt O43525+O43526, W265L); test: Two-electrode voltage-clamp of Q2/W265L-Q3 mutant channels in Xenopus oocytes; format: cell-based; conditions: for Non-normalized tail current V0.5 / Normalized tail current V0.5 / Slope: Q2/W265L-Q3
Text: as §1, §2

[1] = tested on: pentylene tetrazole-induced seizures; test: PTZ chemoconvulsant assay; format: in vivo, mouse; conditions: mice
Text: We compared anticonvulsant activities of test compounds in male C57BL/6 mice (Charles River) aged 2–3 months. Mice were housed and used according to the recommendations in the Guide for the Care and Use of Laboratory Animals of the National Institutes of Health (NIH Publication, 8th edition, 2011). The study protocol was approved by the Institutional Animal Care and Use Committee of University of California, Irvine, which confirmed that all relevant ethical regulations were adhered to. Chemicals were sourced from Sigma (St. Louis, MO, USA) . A pentylene tetrazole (PTZ) chemoconvulsant assay was used[54]. […] Following the PTZ injection, mice were caged individually and an observer (GWA) blinded to the drug used recorded, over 20 min, clonic and tonic seizure incidence, and seizure-related mortality.
All values are expressed as mean ± SEM. Chi-squared analysis was used to compare seizure-related mortality in mice. One-way ANOVA was applied for all other tests; if multiple comparisons were performed, a post-hoc Tukey’s HSD test was performed following ANOVA. All p-values were two-sided. Statistical significance was defined as p < 0.05.

KCNQ1 = KCNQ1 (Homo sapiens, UniProt P51787); set-up: method as in PMID 27997884; conditions: cited from earlier work
[2] = rats fed Mallotus philippensis extract; cited from earlier work

Sequence of Q2/W265L-Q3 channels (O43526 whole entry): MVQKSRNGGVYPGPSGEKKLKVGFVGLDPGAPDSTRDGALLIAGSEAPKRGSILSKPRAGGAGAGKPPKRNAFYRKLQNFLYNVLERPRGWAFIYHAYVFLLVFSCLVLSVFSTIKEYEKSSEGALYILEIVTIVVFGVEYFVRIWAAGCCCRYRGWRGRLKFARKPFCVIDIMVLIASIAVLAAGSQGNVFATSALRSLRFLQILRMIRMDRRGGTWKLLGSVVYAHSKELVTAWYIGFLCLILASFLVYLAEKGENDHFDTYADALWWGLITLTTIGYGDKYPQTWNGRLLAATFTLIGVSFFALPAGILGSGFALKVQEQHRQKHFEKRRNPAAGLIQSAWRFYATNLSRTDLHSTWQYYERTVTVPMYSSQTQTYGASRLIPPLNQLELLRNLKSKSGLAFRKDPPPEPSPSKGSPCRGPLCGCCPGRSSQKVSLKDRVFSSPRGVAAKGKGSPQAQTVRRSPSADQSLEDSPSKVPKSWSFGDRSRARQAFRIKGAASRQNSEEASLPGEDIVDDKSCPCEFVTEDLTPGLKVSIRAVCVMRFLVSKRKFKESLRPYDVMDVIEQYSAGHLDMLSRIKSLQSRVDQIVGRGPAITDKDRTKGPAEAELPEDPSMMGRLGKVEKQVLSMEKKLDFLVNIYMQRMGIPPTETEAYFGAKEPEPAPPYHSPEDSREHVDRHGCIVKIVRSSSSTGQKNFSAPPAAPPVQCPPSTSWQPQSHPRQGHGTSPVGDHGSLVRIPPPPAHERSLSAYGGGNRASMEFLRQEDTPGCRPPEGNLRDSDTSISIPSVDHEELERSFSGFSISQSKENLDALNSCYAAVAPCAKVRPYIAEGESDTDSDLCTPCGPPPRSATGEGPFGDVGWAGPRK
Sequence of Q2/W265L-Q3 channels (O43525 whole entry W265L): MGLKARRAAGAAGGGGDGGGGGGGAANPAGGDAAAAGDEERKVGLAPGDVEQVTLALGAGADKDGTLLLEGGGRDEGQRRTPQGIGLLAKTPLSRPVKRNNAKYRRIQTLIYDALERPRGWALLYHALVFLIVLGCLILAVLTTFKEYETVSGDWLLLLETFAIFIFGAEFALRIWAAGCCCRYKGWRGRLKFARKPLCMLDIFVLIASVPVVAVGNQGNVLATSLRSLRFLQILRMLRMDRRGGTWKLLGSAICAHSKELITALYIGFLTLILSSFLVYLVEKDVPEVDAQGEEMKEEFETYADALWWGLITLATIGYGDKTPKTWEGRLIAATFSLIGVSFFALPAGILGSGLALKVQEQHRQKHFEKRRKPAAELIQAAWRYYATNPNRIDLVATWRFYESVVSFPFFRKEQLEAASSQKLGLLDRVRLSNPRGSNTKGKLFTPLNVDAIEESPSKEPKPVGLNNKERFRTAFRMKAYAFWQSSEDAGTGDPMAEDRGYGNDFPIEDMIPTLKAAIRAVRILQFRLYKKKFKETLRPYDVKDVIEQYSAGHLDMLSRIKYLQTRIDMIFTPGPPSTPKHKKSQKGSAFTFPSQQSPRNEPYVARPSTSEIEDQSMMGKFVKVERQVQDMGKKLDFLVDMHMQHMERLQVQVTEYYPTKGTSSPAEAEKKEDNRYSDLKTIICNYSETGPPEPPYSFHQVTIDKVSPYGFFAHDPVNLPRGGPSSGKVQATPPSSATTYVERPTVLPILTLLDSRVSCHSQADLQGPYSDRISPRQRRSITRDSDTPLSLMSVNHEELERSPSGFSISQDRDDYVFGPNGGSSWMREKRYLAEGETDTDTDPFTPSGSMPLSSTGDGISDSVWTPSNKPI
Sequence of W236L-Q2/Q3 channels (O43525 whole entry): as the sequence (O43525 whole entry W265L) above, with L265W counted along it
Sequence of W236L-Q2/Q3 channels (O43526 whole entry W236L): as the sequence (O43526 whole entry) above, with W236L counted along it
Sequence of KCNQ1 (P51787 whole entry): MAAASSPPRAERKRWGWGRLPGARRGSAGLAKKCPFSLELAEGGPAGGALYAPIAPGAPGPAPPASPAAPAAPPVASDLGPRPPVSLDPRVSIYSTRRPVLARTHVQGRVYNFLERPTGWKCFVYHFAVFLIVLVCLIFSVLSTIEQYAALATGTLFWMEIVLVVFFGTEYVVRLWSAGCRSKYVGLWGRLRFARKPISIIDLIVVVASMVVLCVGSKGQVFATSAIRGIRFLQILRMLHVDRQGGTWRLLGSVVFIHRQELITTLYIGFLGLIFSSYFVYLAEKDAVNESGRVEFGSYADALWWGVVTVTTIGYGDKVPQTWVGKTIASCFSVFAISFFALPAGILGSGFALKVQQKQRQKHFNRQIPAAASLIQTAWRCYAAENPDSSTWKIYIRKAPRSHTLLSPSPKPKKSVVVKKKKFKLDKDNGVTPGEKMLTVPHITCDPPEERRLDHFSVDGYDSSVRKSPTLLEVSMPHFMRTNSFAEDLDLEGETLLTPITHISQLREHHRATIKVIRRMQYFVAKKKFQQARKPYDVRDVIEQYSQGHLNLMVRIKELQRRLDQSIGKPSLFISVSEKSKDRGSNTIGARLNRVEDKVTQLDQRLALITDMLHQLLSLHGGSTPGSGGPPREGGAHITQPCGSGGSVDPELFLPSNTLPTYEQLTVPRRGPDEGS

CC(=O)c1c(O)c(C)c(O)c(Cc2c(O)c3c(c(C(=O)/C=C/c4ccccc4)c2O)OC(C)(C)C=C3)c1O [MTX, mallotoxin]
EC50 (KCNQ2): 6.4 µM | Non-normalized tail current V0.5 (KCNQ2; KCNQ2, 0.1 µM): -50.0 ± 0.4 mV | Normalized tail current V0.5 (KCNQ2; KCNQ2, 0.1 µM): -50.0 ± 0.35 mV | Slope (KCNQ2; KCNQ2, 0.1 µM): 7.4 ± 0.23 mV | τ act, -40 mV (KCNQ2; KCNQ2, 0.1 µM): 538 ± 20 ms | τ deact, -80 mV (KCNQ2; KCNQ2, 0.1 µM): 294 ± 10 ms | Non-normalized tail current V0.5 (KCNQ2; KCNQ2, 1 µM): -51.7 ± 2.0 mV | Normalized tail current V0.5 (KCNQ2; KCNQ2, 1 µM): -51.4 ± 0.46 mV | Slope (KCNQ2; KCNQ2, 1 µM): 7.4 ± 0.31 mV | τ act, -40 mV (KCNQ2; KCNQ2, 1 µM): 490 ± 23 ms | τ deact, -80 mV (KCNQ2; KCNQ2, 1 µM): 271 ± 11 ms | Non-normalized tail current V0.5 (KCNQ2; KCNQ2, 3 µM): -52.1 ± 2.5 mV | Normalized tail current V0.5 (KCNQ2; KCNQ2, 3 µM): -54.9 ± 0.41 mV | Slope (KCNQ2; KCNQ2, 3 µM): 7.3 ± 0.33 mV | τ act, -40 mV (KCNQ2; KCNQ2, 3 µM): 417 ± 25 ms | τ deact, -80 mV (KCNQ2; KCNQ2, 3 µM): 237 ± 12 ms | Non-normalized tail current V0.5 (KCNQ2; KCNQ2, 10 µM): -61.7 ± 2.7 mV | Normalized tail current V0.5 (KCNQ2; KCNQ2, 10 µM): -61.2 ± 0.87 mV | Slope (KCNQ2; KCNQ2, 10 µM): 7.0 ± 1.0 mV | τ act, -40 mV (KCNQ2; KCNQ2, 10 µM): 341 ± 22 ms | τ deact, -80 mV (KCNQ2; KCNQ2, 10 µM): 199 ± 11 ms | Non-normalized tail current V0.5 (KCNQ2; KCNQ2, 30 µM): -68.7 ± 2.7 mV | Normalized tail current V0.5 (KCNQ2; KCNQ2, 30 µM): -68.5 ± 1.5 mV | Slope (KCNQ2; KCNQ2, 30 µM): 7.4 ± 0.6 mV | shift in midpoint voltage of activation (KCNQ2; KCNQ2, 30 µM): −24 mV | τ act, -40 mV (KCNQ2; KCNQ2, 30 µM): 301 ± 19 ms | τ deact, -80 mV (KCNQ2; KCNQ2, 30 µM): 173 ± 10 ms | Non-normalized tail current V0.5 (KCNQ2; KCNQ2, 100 µM): -66.2 ± 2.7 mV | Normalized tail current V0.5 (KCNQ2; KCNQ2, 100 µM): -66.0 ± 2.7 mV | Slope (KCNQ2; KCNQ2, 100 µM): 8.1 ± 1.2 mV | τ act, -40 mV (KCNQ2; KCNQ2, 100 µM): 353 ± 22 ms | τ deact, -80 mV (KCNQ2; KCNQ2, 100 µM): 190 ± 8 ms | EC50 (W236L-Q2/Q3 channels; EC50, W236L-Q2/Q3, calculated from dose responses): 27 ± 0.6 µM | EC50 (W236L-Q2/Q3 channels; V0.5 EC50, W236L-Q2/Q3, calculated from shift in V0.5): 37.3 ± 0.2 µM | Non-normalized tail current V0.5 (W236L-Q2/Q3 channels; 1 µM): -55.7 ± 1.9 mV | Normalized tail current V0.5 (W236L-Q2/Q3 channels; 1 µM): -57.1 ± 0.9 mV | Slope (W236L-Q2/Q3 channels; 1 µM): 6.0 ± 0.7 mV | Non-normalized tail current V0.5 (W236L-Q2/Q3 channels; 3 µM): -55.4 ± 2.1 mV | Normalized tail current V0.5 (W236L-Q2/Q3 channels; 3 µM): -57.8 ± 1.3 mV | Slope (W236L-Q2/Q3 channels; 3 µM): 3.9 ± 2.2 mV | Non-normalized tail current V0.5 (W236L-Q2/Q3 channels; 10 µM): -57.3 ± 2.7 mV | Normalized tail current V0.5 (W236L-Q2/Q3 channels; 10 µM): -58.1 ± 0.9 mV | Slope (W236L-Q2/Q3 channels; 10 µM): 6.2 ± 0.7 mV | Non-normalized tail current V0.5 (W236L-Q2/Q3 channels; 30 µM): -61.9 ± 3.9 mV | Normalized tail current V0.5 (W236L-Q2/Q3 channels; 30 µM): -62.4 ± 1.3 mV | Slope (W236L-Q2/Q3 channels; 30 µM): 6.6 ± 0.9 mV | Non-normalized tail current V0.5 (W236L-Q2/Q3 channels; 100 µM): -67.9 ± 7.7 mV | Normalized tail current V0.5 (W236L-Q2/Q3 channels; 100 µM): -71.4 ± 4.5 mV | Slope (W236L-Q2/Q3 channels; 100 µM): 6.8 ± 1.2 mV | EC50 (Q2/W265L-Q3 channels; EC50, Q2/W265L-Q3, calculated from dose responses): 70 ± 0.6 µM | Non-normalized tail current V0.5 (Q2/W265L-Q3 channels; 1 µM): -51.3 ± 11.3 mV | Normalized tail current V0.5 (Q2/W265L-Q3 channels; 1 µM): -45.7 ± 2.9 mV | Slope (Q2/W265L-Q3 channels; 1 µM): 7.9 ± 1.7 mV | Non-normalized tail current V0.5 (Q2/W265L-Q3 channels; 3 µM): -52.7 ± 10.5 mV | Normalized tail current V0.5 (Q2/W265L-Q3 channels; 3 µM): -49.2 ± 2.6 mV | Slope (Q2/W265L-Q3 channels; 3 µM): 7.9 ± 1.8 mV | Non-normalized tail current V0.5 (Q2/W265L-Q3 channels; 10 µM): -54.0 ± 9.7 mV | Normalized tail current V0.5 (Q2/W265L-Q3 channels; 10 µM): -51.8 ± 2.4 mV | Slope (Q2/W265L-Q3 channels; 10 µM): 7.6 ± 1.4 mV | Non-normalized tail current V0.5 (Q2/W265L-Q3 channels; 30 µM): -58.0 ± 8.3 mV | Normalized tail current V0.5 (Q2/W265L-Q3 channels; 30 µM): -56.3 ± 2.2 mV | Slope (Q2/W265L-Q3 channels; 30 µM): 7.4 ± 1.6 mV | Non-normalized tail current V0.5 (Q2/W265L-Q3 channels; 100 µM): -63.7 ± 11.2 mV | Normalized tail current V0.5 (Q2/W265L-Q3 channels; 100 µM): -61.8 ± 2.2 mV | Slope (Q2/W265L-Q3 channels; 100 µM): 6.6 ± 2.1 mV | EC50 (Q2/W265L-Q3 channels; V0.5 EC50, Q2/W265L-Q3, calculated from shift in V0.5): 13.7 ± 0.3 µM | clonic seizure incidence ([1]; 10 mg/kg i.p. alone): neither compound reduced clonic seizures alone | clonic seizure incidence ([1]; 20 mg/kg i.p., 30 min before 80 mg kg−1 PTZ): halved | suppression of PTZ-induced tonic seizures ([1]; individually): ineffective | effect on KCNQ1 (KCNQ1): activated | Oral bioavailability [2]: > 20% | plasma concentrations [2]: exceeded 2 µg/ml
